Source: patent EP1056700B1, “MEDICINAL USES OF PHENYLALKANOLS AND DERIVATES” (ZingoTX Pty Ltd, priority 1997, dated 1999)
Several values for one entry are separate records, joined by “and”; a condition that tells them apart may be missing. Identical values can stand only once.

Columns and labels:
[1] = Brine shrimp toxicity bioassay; assay type: in vivo; settings: Artemia salina (brine shrimp), in vivo; 24 hours, 2% DMSO
Description: The brine shrimp assay procedure determines LC50 values of active compounds. Activities of a broad range of known active compounds are manifested as toxicity to brine shrimp (Artemia salina Leach). There are many applications of the assay including analysis of toxic substances, anaesthetics, morphine-like substances and cocarcinogenicity of phorbol esters.
The method for testing solvent toxicity used was basically that reported by J L McLaughlin in Methods of Plant Biochemistry (1991), vol. 6 (K Hostettman, ed.), Academic Press, London, 1-32. DMSO solutions of the substances to be tested were added directly to the vials containing the brine shrimp. As the concentration of DMSO that we wished to use was higher than the recommended 1% v/v testing of the toxicity of the DMSO was therefore necessary. The concentrations of DMSO tested on the shrimp, along with the results from the assay which was done in duplicate are listed below.
Brine shrimp toxicity was assayed, except for some minor modifications, according to the method of McLaughlin et al as reported in Brine Shrimp: A convenient bioassay for active plant constituents, B N Meyer, N R Ferrigni, J E Putnam, L B Jacobsen, D E Nichols and J L McLaughlin in Planta Medica (1982), 45, 31-34 and Crown gall tumours on potato discs and brine shrimp lethality: Two simple bioassays for higher plant screening and fractionation. J L McLaughlin. Methods of Plant Biochemistry (1991), vol. 6 (K Hostettman, ed.), Academic Press, London, 1-32. Ten shrimp were transferred to each of the vials and the volume adjusted to 4.9 mL. Each dose was performed in triplicate, including the control. In quick succession, the appropriate volume of additional DMSO for each dose, required to achieve a final concentration of 2%, was added before the appropriate volume of test solution. The vials were gently mixed and the time noted. After 24 hours, the number of survivors were counted and % mortality was determined. The test compounds were assayed at concentrations of 100 µM, 25 µM, 5 µM, 1 µM and 0.2 µM (and where appropriate concentrations of 0.04 µM and 0.008 µM).
The brine shrimp were able to survive without food in the vials over the 24 hour period and were therefore not fed.
The dose-response curves were constructed using the Sigmaplot computer program and the LC50 value was calculated from the intersection point of the curve and the 50 % mortality line. The LC50 values were expressed in both µM and µg/mL.

Lipoxygenase (LP) = target: T1, Lipoxygenase (LP) (Rattus norvegicus, UniProt P12527); test: Lipoxygenase assay with cell-free enzyme from RBL 2H3 cells (EIA); assay type: biochemical; settings: final concentration of 10 µM
T1 construct: cell-free enzyme (Wong et al, 1991) prepared from rat basophilic leukemia (RBL) 2H3 cell lines; endogenous in cells; host or cells: RBL 2H3 (rat basophilic leukemia), 15,000 g supernatant of cells disrupted by nitrogen cavitation
T1 sequence (P12527 1-673): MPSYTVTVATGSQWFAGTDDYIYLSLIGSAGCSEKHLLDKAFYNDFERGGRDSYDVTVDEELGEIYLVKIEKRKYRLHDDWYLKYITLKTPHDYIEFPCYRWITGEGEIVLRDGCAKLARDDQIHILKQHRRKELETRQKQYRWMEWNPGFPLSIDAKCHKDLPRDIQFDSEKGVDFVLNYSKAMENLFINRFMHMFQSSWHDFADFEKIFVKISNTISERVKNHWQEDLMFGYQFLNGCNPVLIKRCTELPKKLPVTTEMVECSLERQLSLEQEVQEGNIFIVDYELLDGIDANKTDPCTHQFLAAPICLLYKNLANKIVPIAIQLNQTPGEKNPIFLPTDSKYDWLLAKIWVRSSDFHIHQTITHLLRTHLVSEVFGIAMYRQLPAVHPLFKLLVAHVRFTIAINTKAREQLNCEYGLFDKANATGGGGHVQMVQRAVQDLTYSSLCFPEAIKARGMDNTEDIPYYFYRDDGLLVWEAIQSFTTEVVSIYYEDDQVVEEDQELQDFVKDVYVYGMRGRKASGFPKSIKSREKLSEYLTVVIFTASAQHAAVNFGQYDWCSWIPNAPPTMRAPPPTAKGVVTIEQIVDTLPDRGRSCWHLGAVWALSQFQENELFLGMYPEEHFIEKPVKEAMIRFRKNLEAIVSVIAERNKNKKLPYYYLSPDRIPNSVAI
In short: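 Cell-free enzyme from the 15,000 g supernatant of nitrogen-cavitated RBL 2H3 cells, preincubated 5 min with compound at 10 µM final (1.5% DMSO) in Hepes pH 7. Reaction started with CaCl2, ATP, PAF and arachidonic acid and run 8 min at room temperature; product quantified by EIA.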

Cyclo-oxygenase (COX) = test: Cyclo-oxygenase assay in RBL 2H3 cells (PGD2 EIA); assay type: cell-based, rat; settings: final concentration of 10 µM
Procedure: Cyclo-oxygenase (COX) assay was performed with cells in culture prepared from rat basophilic leukemia (RBL) 2H3 cell lines. Cells were cultured in EMEM containing 10% fetal calf serum and antibiotic until cells reached confluence. Harvested cells were subsequently seeded on 24-well plates at 1 x 10^6 cells/ml then incubated at 37°C for 3 hours. Cells were washed twice with incubation buffer (1.5 ml) containing 5 mM Hepes, 140 mM NaCl, 5 mM KCl, 0.6 mM MgCl2, 1 mM CaCl2 and […]. Cells were then covered with 0.49 ml of buffer, followed by addition of samples/solvents (0.005 ml) and incubated at 37 °C for 5 min on an orbital shaker. Arachidonic acid (0.005 ml, containing 50% EtOH) was subsequently added, and the plate was incubated at similar conditions for a further 10 min. The supernatant (0.1 ml) was aliquoted for methoxime derivatisation of PGD2, which was carried out by heating the supernatant with methoxime solution (1:1) at 60 °C for 30 min according to the instructions provided with the kit. The resultant solution was diluted with EIA buffer and stored on ice for EIA, following the protocol provided with the kit.
Validation of COX enzyme activity was carried out using EIA in which the enzyme activity was characterised against various concentrations of AA and a time course of enzyme activity.
[…] Indomethacin was used as reference compound. The concentration of DMSO in the assay was maintained at 1.5%.

| activity at 10 µM (Lipoxygenase (LP)) [%] | SMILES | LC50 at 24 h [1] | Cyclooxygenase activity % activity (Cyclo-oxygenase (COX)) [%] |
| --- | --- | --- | --- |
| 175 | CCCCCCCC(O)CC(=O)c1ccc(O)c(OC)c1 (centres unmarked) [3-hydroxy-1-(4-hydroxy-3-methoxyphenyl)decan-1-one] | 66 µM and 19 µg/mL | 123 |
| 107 | CCCCCCCC(O)CC(=O)CCc1ccc2c(c1)OCO2 (centres unmarked) [5-hydroxy-1-(3,4-methylenedioxyphenyl)dodecan-3-one] | 3 µM and 0.96 µg/mL | 59 |
| 450 | CCCCCCCC(O)CC(=O)CCc1ccc(O)cc1 (centres unmarked) [[8]-demethoxygingerol, 5-hydroxy-1-(4-hydroxyphenyl)dodecan-3-one] | 25 µM and 7.3 µg/mL | 63 |
| 65.5 | CCCCCCCC(O)CC(=O)CCc1ccc(O)c(OC)c1 (centres unmarked) [[8]-gingerol, 5-hydroxy-1-(4-hydroxy-3-methoxyphenyl)dodecan-3-one, reference compound] | 64 µM and 21 µg/mL | 16 |
| 8 | CCCCCCCC(O)CC(=O)CCc1ccc(OC)c(O)c1 (centres unmarked) [[8]-isogingerol, 5-hydroxy-1-(3-hydroxy-4-methoxyphenyl)dodecan-3-one, reference compound] | 11 µM and 3.5 µg/mL | 23 |
| 118 | CCCCCCCC(O)CC(=O)CCc1cccc(OC)c1O (centres unmarked) [[8]-orthogingerol, 5-hydroxy-1-(2-hydroxy-3-methoxyphenyl)dodecan-3-one] | 9.6 µM and 3.1 µg/mL | 17 |

Continued, compound first:

| SMILES | activity at 10 µM (Lipoxygenase (LP)) [%] | LC50 at 24 h [1] | Cyclooxygenase activity % activity (Cyclo-oxygenase (COX)) [%] |
| --- | --- | --- | --- |
| CCCCCCCCCC(O)CCc1ccc(O)c(OC)c1 (centres unmarked) [1-(4-hydroxy-3-methoxyphenyl)dodecan-3-ol] | 31 | > 100 µM and > 31 µg/mL | 9 |
| CCCCCCCC(O)CCCCc1ccc(O)c(OC)c1 (centres unmarked) [1-(4-hydroxy-3-methoxyphenyl)dodecan-5-ol] | 35 | 6.6 µM and 2 µg/mL | 12 |
| CCCCCCCC(=O)CC(O)CCc1ccc(O)c(OC)c1 (centres unmarked) [3-hydroxy-1-(4-hydroxy-3-methoxyphenyl)dodecan-5-one] | 193 | 67 µM and 22 µg/mL | 18 |
| CCCCCC(O)CC(=O)CCc1ccc(O)c(OC)c1 (centres unmarked) [[6]-gingerol, 5-hydroxy-1-(4-hydroxy-3-methoxyphenyl)decan-3-one, reference compound] | 202 | > 100 µM and > 29 µg/mL | 55 |
| CCCCCCCC(O)CC(=O)C=Cc1ccc(O)c(OC)c1 (centres unmarked) [[8]-dehydrogingerol, 5-hydroxy-1-(4-hydroxy-3-methoxyphenyl)dodecan-1-ene-3-one, reference compound] | 37 | 41 µM and 13 µg/mL | 19 |
| CCCCCCCC(O)CC(O)CCc1ccc(O)c(OC)c1 (centres unmarked) [[8]-gingerdiol, 1-(4-hydroxy-3-methoxyphenyl)dodecane-3,5-diol, reference compound] | 26 |  | 10 |
